In ChEMBL document CHEMBL1150448, “Dihydropyridines: a new class of angiotensin II antagonists” (Bioorg Med Chem Lett, 1994):

Tests used:
[1] = biological target: T1, Angiotensin II receptor (AT-1) type-1 (Rattus norvegicus, UniProt P29089+P25095); assay: Binding affinity to Angiotensin II receptor, type 1 as displacement of 125I-Sar, Ile-AII from rat adrenal cortex membranes; type: cell membranes, Membrane
T1 sequence (P29089 whole entry): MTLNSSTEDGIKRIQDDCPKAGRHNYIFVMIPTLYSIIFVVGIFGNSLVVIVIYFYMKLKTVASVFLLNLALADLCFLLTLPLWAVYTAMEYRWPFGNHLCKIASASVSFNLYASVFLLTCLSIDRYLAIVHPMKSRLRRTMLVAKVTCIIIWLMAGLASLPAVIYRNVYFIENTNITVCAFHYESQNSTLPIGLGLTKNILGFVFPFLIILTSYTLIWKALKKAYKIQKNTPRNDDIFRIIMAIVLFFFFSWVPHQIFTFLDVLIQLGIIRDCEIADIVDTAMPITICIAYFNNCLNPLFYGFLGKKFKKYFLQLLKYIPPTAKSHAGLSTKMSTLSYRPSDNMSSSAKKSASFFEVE
T1 sequence (P25095 whole entry): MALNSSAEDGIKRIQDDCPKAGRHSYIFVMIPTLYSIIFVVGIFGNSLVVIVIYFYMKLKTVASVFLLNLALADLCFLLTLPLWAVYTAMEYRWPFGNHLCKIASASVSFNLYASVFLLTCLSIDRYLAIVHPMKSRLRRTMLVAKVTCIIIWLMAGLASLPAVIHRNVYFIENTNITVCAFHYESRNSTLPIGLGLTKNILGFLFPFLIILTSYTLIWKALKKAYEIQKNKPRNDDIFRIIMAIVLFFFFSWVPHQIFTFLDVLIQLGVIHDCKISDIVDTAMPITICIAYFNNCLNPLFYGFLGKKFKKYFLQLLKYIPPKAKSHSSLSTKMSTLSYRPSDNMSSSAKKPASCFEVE

[2] = Calcium channel blocking activity (CCB); type: functional
[3] = Compound was evaluated for inhibitory activity against PAF (platelet activating factor) induced platelet aggregation; type: functional
Rattus norvegicus = assay: Dose required to produce 30 […] decrease in blood pressure that lasted for >6 hr.; type: functional

| SMILES | IC50 [1] | IC50 [2] | IC50 [3] | Dose (Rattus norvegicus) |
| --- | --- | --- | --- | --- |
| CCCCc1nc2cccnc2n1CCCCCCCO/C(O)=C1\C(C(C)C)=NC(C)=C(C(=O)Nc2cccnc2)C1c1ccccc1Cl (stereo unspecified) | 2000 nM | – | – | – |
| CCCCc1nc2cccnc2n1CCCCCCO/C(O)=C1\C(C(C)C)=NC(C)=C(C(=O)Nc2cccnc2)C1c1ccccc1Cl (stereo unspecified) | 100 nM | – | – | – |
| CCCCc1nc2cccnc2n1-c1ccc(CCO/C(O)=C2\C(C(C)C)=NC(C)=C(C(=O)Nc3cccnc3)C2c2ccccc2Cl)cc1 (single isomer, unassigned; (+)) | 5300 nM | – | – | – |
| CCCCc1nc2cccnc2n1-c1ccc(CCO/C(O)=C2\C(C(C)C)=NC(C)=C(C(=O)Nc3cccnc3)C2c2ccccc2Cl)cc1 (stereo in doubt; 12) | 140 nM | – | – | – |

Continued, in another order:

| IC50 [1] | IC50 [2] | IC50 [3] | SMILES | Dose (Rattus norvegicus) |
| --- | --- | --- | --- | --- |
| 60 nM | 360 nM | > 100000 nM | CCCCc1nc2cccnc2n1-c1ccc(CCO/C(O)=C2\C(C)=NC(C)=C(C(=O)Nc3ccccn3)C2c2ccccc2Cl)cc1 (stereo unspecified) | – |
| 120 nM | > 100000 nM | > 100000 nM | CCCCc1nc2cccnc2n1-c1ccc(CCO/C(O)=C2\C(C(C)C)=NC(C)=C(C(=O)Nc3ccccn3)C2c2ccccc2Cl)cc1 (stereo unspecified) | – |
| 200 nM | – | – | CCCCc1nc2cccnc2n1CCCCCO/C(O)=C1\C(C(C)C)=NC(C)=C(C(=O)Nc2cccnc2)C1c1ccccc1Cl (stereo unspecified) | – |
| 130 nM | – | – | CCCCc1nc2cccnc2n1-c1ccc(CCO/C(O)=C2\C(C(C)C)=NC(C)=C(C(=O)Nc3cccnc3)C2c2ccccc2Cl)cc1 (single isomer, unassigned; (-)) | 60 mg/kg |
| 600 nM | > 100000 nM | 30 nM | CCCCc1nc2cccnc2n1-c1ccc(CCO/C(O)=C2\C(C(C)C)=NC(C)=C(C(=O)Nc3cccnc3)C2c2ccccc2Cl)cc1 (stereo in doubt) | – |
